# Patent US7211583B2, “7-azaindoles and the use thereof as therapeutic agents” (Elbion AG, priority 2003, dated 2007)
# Biological target: phosphodiesterase 4
# Experiment: Phosphodiesterase 4 inhibition, SPA with enzyme preparation from human PMNL
# Format: biochemical
# Conditions: cytosolic PDE4 from human PMNL, 0.5 μM [3H]-cAMP, 37° C., 30 minutes; read-out: PDE 4 inhibition IC50
# Experimental: PDE4 activity is determined using enzyme preparations from human polymorphonuclear […] (PMNL). Human blood (buffy coats) was anticoagulated with citrate. A centrifugation at 700×g at room temperature (RT) for 20 minutes separates the platelet-rich plasma in the supernatant from the erythrocytes and leukocytes. The PMNLs for the PDE4 determination are isolated by a subsequent dextran sedimentation and in gradient centrifugation with Ficoll-Paque. After the cells have been washed twice, the erythrocytes which are still present are lysed by adding 10 ml of hypotonic buffer (155 mM NH4Cl, 10 mM NaHCO3, 0.1 mM EDTA, pH=7.4) at 4° C. within 6 minutes. The still intact PMNLs are then washed twice with PBS and lysed by ultrasound. The supernatant from a centrifugation at 4° C. and 48000×g for one hour contains the cytosolic fraction of PDE 4 and is employed for the PDE4 measurements.
# The phosphodiesterase activity is assayed using a modified Amersham Pharmacia Biotech method, an SPA (scintillation proximity assay).
# The reaction mixtures contain buffer (50 mM Tris-HCl (pH 7.4), 5 mM MgCl2, 100 μM cGMP), the inhibitors in variable concentrations and the appropriate enzyme preparation. The reaction is started by adding the substrate, 0.5 μM [^3H]-cAMP. The final volume is 100 μl. Test substances are made up as stock solutions in DMSO. The DMSO concentration in the reaction mixture is 1% v/v. The PDE activity is unaffected at this DMSO concentration. After the reaction has been started by adding substrate, the samples are incubated at 37° C. for 30 minutes. The reaction is stopped by adding a defined amount of SPA beads, and the samples are counted after one hour in a Beta counter. The nonspecific enzymic activity (the blank) is determined in the presence of 100 μM rolipram and subtracted from the test results. The incubation mixtures for the PDE4 assay contain 100 μM cGMP in order to inhibit any contamination by PDE 3.
row,SMILES,IC50
1,"O=C(Nc1c(Cl)c[n+]([O-])cc1Cl)C(=O)c1cn(Cc2ccc(F)cc2)c2ncccc12 [Compound 3, N-(3,5-Dichloro-1-oxopyridin-4-yl)-[1-(4-fluorobenzyl)-7-azaindol-3-yl]glyoxylamide]",8 nM
2,"O=C(Nc1c(Cl)cncc1Cl)C(=O)c1cn(Cc2ccc(F)cc2)c2c1ccc[n+]2[O-] [Compound 1, N-(3,5-Dichloropyridin-4-yl)-[1-(4-fluorobenzyl)-7-oxo-7-azaindol-3-yl]glyoxylamide]",52 nM
3,"O=C(Nc1c(Cl)cccc1Cl)C(=O)c1cn(Cc2ccccc2Cl)c2c1ccc[n+]2[O-] [Compound 2, N-(2,6-Dichlorophenyl)-[1-(2-chlorobenzyl)-7-oxo-7-azaindol-3-yl]glyoxylamide]",48 nM
4,"O=C(Nc1c(Cl)c[n+]([O-])cc1Cl)C(=O)c1cn(Cc2ccc(F)cc2)c2c1ccc[n+]2[O-] [Compound 4, N-(3,5-Dichloro-1-oxopyridin-4-yl)-[1-(4-fluorobenzyl)-7-oxo-7-azaindol-3-yl]glyoxylamide]",751 nM
